# Where two headings read alike, the source gives them in different places. Where a SMILES comes first, the peptide text is derived from it. [ ]: non-standard residue; d: D form. The star is where a group is joined. ξ: configuration not given here. ξF = NC(Cc1ccccc1)C(=O)O; Cbz = O=C(OCc1ccccc1)*; ξV = CC(C)C(N)C(=O)O; CHN2 = [N-]=[N+]=C*; ξP = O=C(O)C1CCCN1; tBu = CC(C)(C)*
# Experiments:
# [1] = tested on: cancer procoagulant (CP); test: one-stage plasma recalcification clotting time assay, inhibition of CP procoagulant activity; assay type: biochemical, rabbit; conditions: for percent inhibition of CP: 30 min at 25° C.
# [2] = molecular target: T1, papain (Carica papaya, UniProt P00784); assay type: biochemical; conditions: 30 min at 25° C.
# T1 construct: purchased Sigma Chemical Co. (St. Louis, MO)
# T1 sequence (P00784 134-345): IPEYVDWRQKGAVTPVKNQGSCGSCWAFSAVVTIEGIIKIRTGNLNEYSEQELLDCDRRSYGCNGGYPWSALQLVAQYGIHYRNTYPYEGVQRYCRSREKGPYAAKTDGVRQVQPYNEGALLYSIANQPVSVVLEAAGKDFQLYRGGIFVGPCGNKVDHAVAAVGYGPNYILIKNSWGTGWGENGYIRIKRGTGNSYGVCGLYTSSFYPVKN
# Experimental: (§1) If the volume of the sample was too small, 0.05 ml of the sample was used with proportional reduction in the volume of the other reagents. […] These dilutions of RVV were used to calibrate the assay plasma and to verify linearity of the clotting times over the range of procoagulant activity.
# (§2) The procoagulant activity of the samples was expressed as clotting time in seconds or as the percent activity, calculated as the percent reduction of clotting time (CT) from the corresponding buffer blank [(blank time (sec)-sample clotting time (sec))/ blank time (sec)]×100. The percent inhibition of the control and experimental procoagulants by the peptidyl diazomethyl ketone and peptidyl sulfonium salt inhibitors was expressed as the percent increase in the clotting time compared with the uninhibited sample [(inhibited CT-uninhibited CT)/uninhibited CT]×100.
# (§3) Papain, a factor X activator and cysteine proteinase standard, RVV (Russell's viper venom) and rabbit brain thromboplastin, a tissue factor (TF) standard, were purchased from Sigma Chemical Co. (St. Louis, MO). To determine the effect of the peptidyl diazomethyl ketone and peptidyl sulfonium salt inhibitors on CP, the control procoagulants (Papain, RVV and TF), and the assay plasma system, the procoagulant activity of the samples and controls was analyzed with and without the addition of different concentrations of the inhibitors. […] Peptidyl diazomethyl ketone inhibitors were incubated with the procoagulant samples at a final concentration of 400 μM, 200 μM, 100 μM, 10 μM and 1 μM. Peptidyl sulfonium salt inhibitors were incubated with the samples at a final concentration of 800 μM, as well as the same concentrations as the diazomethyl ketones. At the end of the inhibition incubation, each sample was analyzed in the coagulation assay.
# [3] = tested on: RVV (Russell's viper venom); test: one-stage plasma recalcification clotting time assay, RVV control procoagulant; assay type: biochemical; conditions: 30 min at 25° C.; for effect on activity of RVV: 400 μM peptidyl sulfonium salt; for percent inhibition of RVV (negative = slight activation): 200 μM peptidyl diazomethyl ketone
# Experimental: as §1, §2, §3
# [4] = molecular target: T2, rabbit brain thromboplastin, a tissue factor (TF) standard (Oryctolagus cuniculus, UniProt P24055); test: one-stage plasma recalcification clotting time assay, TF control procoagulant; assay type: biochemical; conditions: 30 min at 25° C.; for enhancement of TF activity (negative inhibition): 400 μM peptidyl sulfonium salt; for inhibition of TF: 200 μM peptidyl diazomethyl ketone
# T2 construct: rabbit brain thromboplastin, a tissue factor (TF) standard; purchased Sigma Chemical Co. (St. Louis, MO); host or cells: rabbit brain
# T2 sequence (P24055 33-292): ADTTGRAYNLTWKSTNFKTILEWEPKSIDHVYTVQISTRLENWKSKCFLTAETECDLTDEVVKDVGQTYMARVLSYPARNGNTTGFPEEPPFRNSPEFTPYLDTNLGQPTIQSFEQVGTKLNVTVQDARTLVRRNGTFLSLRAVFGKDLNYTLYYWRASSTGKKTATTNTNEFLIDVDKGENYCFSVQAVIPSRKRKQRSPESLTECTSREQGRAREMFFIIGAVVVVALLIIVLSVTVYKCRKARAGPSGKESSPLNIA
# Experimental: as §1, with “The procoagulant activity of the samples and the controls was measured in a one-stage plasma recalcification clotting time assay using a model 202A clot timer (Heller Laboratories, Santa Rose, CA). […] If” for “If”
# as §2, §3
# Each CP or control sample was adjusted to a concentration such that the procoagulant activity reduced the clotting time of the blank assay plasma from 10% to 30%, within the linear range of the assay (Gordon et al. (1979) J. Natl. Cancer Inst. 62:773-776).
# [5] = tested on: control procoagulants (TF, RVV and Papain); test: effect on the coagulation controls and the assay plasma; assay type: biochemical; conditions: compared with D1-D3 results of FIG. 1
# Experimental: The procoagulant activity of the samples and the controls was measured in a one-stage plasma recalcification clotting time assay using a model 202A clot timer (Heller Laboratories, Santa Rose, CA). […]. If the volume of the sample was too small, 0.05 ml of the sample was used with proportional reduction in the volume of the other reagents. […]. These dilutions of RVV were used to calibrate the assay plasma and to verify linearity of the clotting times over the range of procoagulant activity.
# as §2
# Papain, a factor X activator and cysteine proteinase standard, RVV (Russell's viper venom) and rabbit brain thromboplastin, a tissue factor (TF) standard, were purchased from Sigma Chemical Co. (St. Louis, MO). To determine the effect of the peptidyl diazomethyl ketone and peptidyl sulfonium salt inhibitors on CP, the control procoagulants (Papain, RVV and TF), and the assay plasma system, the procoagulant activity of the samples and controls was analyzed with and without the addition of different concentrations of the inhibitors. […]; there was no effect of these solvents on the assay plasma activity. Preliminary experiments evaluated the time (15, 30 and 50 min) and temperature (25° C. and 37° C.) of the inhibition reaction; 30 min at 25° C. was selected as the optimum conditions and was used for the subsequent studies. […] At the end of the inhibition incubation, each sample was analyzed in the coagulation assay. […]
# [6] = tested on: nonsmall cell lung cancer; conditions: patients with nonsmall cell lung cancer limited to one hemithorax; cited from earlier work
# [7] = tested on: cancer procoagulant (CP); assay type: biochemical, human
# Experimental: Fresh human placenta was obtained from the delivery deck, the amnion-chorion membranes were removed from the placental tissue and extracted in 3 to 4 changes of 20 mM veronal buffer (pH 7.4) as described in Gordon et al. (1985) Blood 66:1261-1265. The extracts were purified over an anti-Cp antibody affinity column. The purified CP sample was assayed for procoagulant activity by measuring clotting time of normal and factor VII deficient citrated plasma. […] To assure that there was no tissue factor-factor VIIa activity in the preparation, 5 μl (1.3 mg/ml) of rabbit polyclonal anti-tissue factor antibody was added to the sample and incubated for 30 min. at 25° C.
# [8] = molecular target: cathepsin L (Homo sapiens, UniProt P07711); conditions: cited from earlier work
# Sequence of cathepsin L (Homo sapiens, UniProt P07711) (P07711 114-333, species assumed): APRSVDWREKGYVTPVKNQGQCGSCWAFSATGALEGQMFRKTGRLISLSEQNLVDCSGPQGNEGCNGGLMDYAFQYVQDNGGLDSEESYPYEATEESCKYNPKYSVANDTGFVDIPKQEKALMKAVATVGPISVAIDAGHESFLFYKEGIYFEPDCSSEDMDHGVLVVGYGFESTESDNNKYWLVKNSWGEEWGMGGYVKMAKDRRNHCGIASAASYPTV
# [9] = tested on: small cell carcinoma of the lung; conditions: patients with small cell carcinoma of the lung; cited from earlier work
# [10] = molecular target: cathepsin B (Homo sapiens, UniProt P07858); conditions: cited from earlier work
# [11] = tested on: cathepsin L; conditions: cathepsin B from rat and human; substrate Z-Phe-Arg-4-methyl-7-coumarylamide; cited from earlier work
# [12] = tested on: isolated rat hepatocytes; conditions: 10^-5 M; cited from earlier work
# [13] = molecular target: clostripain (Hathewaya histolytica, UniProt P09870); conditions: cited from earlier work
# Sequence of clostripain (P09870 191-526): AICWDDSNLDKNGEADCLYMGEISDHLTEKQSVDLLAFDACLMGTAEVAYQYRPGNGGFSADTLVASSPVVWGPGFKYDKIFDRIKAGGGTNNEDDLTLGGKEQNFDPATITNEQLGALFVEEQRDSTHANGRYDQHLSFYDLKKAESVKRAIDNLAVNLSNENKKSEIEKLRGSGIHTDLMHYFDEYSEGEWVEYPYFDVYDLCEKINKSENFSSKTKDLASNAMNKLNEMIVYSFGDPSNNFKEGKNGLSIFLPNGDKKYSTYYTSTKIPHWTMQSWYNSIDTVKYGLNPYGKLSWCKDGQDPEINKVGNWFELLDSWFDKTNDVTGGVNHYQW
# Sequence of clostripain (P09870 51-181): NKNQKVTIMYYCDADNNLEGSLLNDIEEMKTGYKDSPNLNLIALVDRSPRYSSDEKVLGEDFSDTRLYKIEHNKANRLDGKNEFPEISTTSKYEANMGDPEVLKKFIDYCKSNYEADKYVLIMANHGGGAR
compound,measurement,setting,value
Z-Phe-Ala-CH2 -S^+ (CH3)2 bromide [S1],percent inhibition of CP,[1]; 10 μM inhibitor,no inhibition
same,percent inhibition of CP,[1]; 100 μM inhibitor,26%
same,percent inhibition of CP,[1]; 200 μM inhibitor,51%
same,percent inhibition of CP,[1]; 400 μM inhibitor,62%
same,percent inhibition of papain,[2]; 10 μM inhibitor,55%
same,percent inhibition of papain,[2]; 100 μM inhibitor,completely inhibited
same,percent inhibition of papain,[2]; 200 μM inhibitor,completely inhibited
same,effect on activity of RVV,[3],Neither S1 nor S2 affected the activity of RVV
same,enhancement of TF activity (negative inhibition),[4],5%
"CC(NC(=O)OCc1ccccc1)C(=O)NC(C)C(=O)N1CCCC1C(=O)C=[N+]=[N-] (stereo not drawn) [D5, Z-Ala-Ala-Pro diazomethyl ketone] (Cbz-Ala-Ala-Pro-CHN2; configuration not given here)",percent inhibition of CP,[1]; 100 μM inhibitor,~62%
same,percent inhibition of papain,[2]; 100 μM inhibitor,2%
same,effect on the coagulation controls and the assay plasma,[5],essentially the same results
"OCCN(CCO)c1nc(N2CCCCC2)c2nc(N(CCO)CCO)ncc2n1 [RA-233, mopidamol]",survival,[6],statistically significant prolongation of survival
"[N-]=[N+]=CC(=O)CNC(=O)C1CCCN1C(=O)OCc1ccccc1 (stereo not shown) [D3, Z-Pro-Gly diazomethyl ketone] (Cbz-[ξP]-Gly-CHN2)",percent inhibition of papain,[2]; 100 μM inhibitor,15%
same,percent inhibition of papain,[2]; 200 μM inhibitor,88%
same,percent inhibition of RVV (negative = slight activation),[3],-10% to -13%
same,inhibition of TF,[4],no significant inhibition
HgCl2 [Hg^++],inhibition of procoagulant activity of purified CP,"[7]; 1 mM iodoacetamide in water, 0.1 mM HgCl2 in water",all the procoagulant activity was inhibited
Z-Phe-Lys-CH2 -S^+ (CH3)2 bromide [S2],percent inhibition of CP,[1]; 10 μM inhibitor,no inhibition
same,percent inhibition of CP,[1]; 100 μM inhibitor,33%
same,percent inhibition of CP,[1]; 200 μM inhibitor,54%
same,percent inhibition of CP,[1]; 400 μM inhibitor,72%
same,percent inhibition of papain,[2]; 10 μM inhibitor,20%
same,percent inhibition of papain,[2]; 100 μM inhibitor,almost the same effect
same,percent inhibition of papain,[2]; 200 μM inhibitor,almost the same effect
same,effect on activity of RVV,[3],Neither S1 nor S2 affected the activity of RVV
same,enhancement of TF activity (negative inhibition),[4],8%
CC(C)(C)Oc1ccc(C[C@H](NC(=O)[C@H](Cc2ccccc2)NC(=O)OCc2ccccc2)C(=O)C=[N+]=[N-])cc1 [Z-Phe-Tyr(O-t-Bu) diazomethyl ketone] (Cbz-Phe-Tyr(tBu)-CHN2),rate of inactivation of cathepsin L relative to cathepsin B,[8],2.5×10^4
"[N-]=[N+]=CC(=O)CNC(=O)C(Cc1ccccc1)NC(=O)OCc1ccccc1 (stereo not shown) [D2, Z-Phe-Gly diazomethyl ketone] (Cbz-[ξF]-Gly-CHN2)",percent inhibition of CP,[1]; 100 μM inhibitor,97%
same,percent inhibition of papain,[2]; 100 μM inhibitor,88%
same,percent inhibition of papain,[2]; 200 μM inhibitor,97%
same,percent inhibition of RVV (negative = slight activation),[3],-10% to -13%
same,inhibition of TF,[4],no significant inhibition
"CC(C)C(NC(=O)CNC(=O)CNC(=O)OCc1ccccc1)C(=O)C=[N+]=[N-] (stereo not drawn) [D4, Z-Gly-Gly-Val diazomethyl ketone] (Cbz-Gly-Gly-[ξV]-CHN2)",percent inhibition of CP,[1]; 100 μM inhibitor,about 48%
same,percent inhibition of papain,[2]; 100 μM inhibitor,2%
same,effect on the coagulation controls and the assay plasma,[5],essentially the same results
CC(=O)CC(c1ccccc1)c1c(O)c2ccccc2oc1=O (stereo not shown) [Warfarin],survival,[9],significant improvement
same,time to first evidence disease progression,[9],significant prolongation
[N-]=[N+]=CC(=O)C(CCCCN)NC(=O)OCc1ccccc1 (stereo not shown) [Z-Lys diazomethyl ketone],inhibition of cathepsin B,[10],powerful inhibitor
"C[C@H](NC(=O)[C@H](Cc1ccccc1)NC(=O)OCc1ccccc1)C(=O)C=[N+]=[N-] [D1, Z-Phe-Ala diazomethyl ketone]",percent inhibition of CP,[1]; 100 μM inhibitor,68%
same,inhibition of CP by D1 relative to S1 (times greater),"[1]; same concentration (100 μM), same peptide",~3 times
same,percent inhibition of papain,[2]; 100 μM inhibitor,85%
same,percent inhibition of papain,[2]; 200 μM inhibitor,97%
same,percent inhibition of RVV (negative = slight activation),[3],-10% to -13%
same,inhibition of TF,[4],no significant inhibition
same,affinity for cathepsin L relative to cathepsin B,[11],about 2000 fold
same,inhibition of protein synthesis,[12],21%
same,reactivity toward clostripain,[13],absolutely inert
"NC(=O)CI [iodacetamide, iodoacetamide]",inhibition of procoagulant activity of purified CP,[7],all the procoagulant activity was inhibited
"CC(NC(=O)C(C)NC(=O)OCc1ccccc1)C(=O)C=[N+]=[N-] (stereo not shown) [D6, Z-Ala-Ala diazomethyl ketone]",percent inhibition of CP,[1]; 100 μM inhibitor,92%
same,percent inhibition of papain,[2]; 100 μM inhibitor,31%
same,effect on the coagulation controls and the assay plasma,[5],essentially the same results

# Reference: patent publication US5223486A, “Inhibition of cancer procoagulant” (University Research Corporation, priority 1991, dated 1993)
